Among the data in PubChem BioAssay (NCI) are GI50 and TGI values, retold here.

Each structure is given as a SMILES string.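 How tested: cells in 96-well plates exposed to compound for 48 hours at five concentrations. The concentration for 50% growth inhibition is given as GI50. TGI: concentration producing complete growth inhibition.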 Where only a bound is given, the exact number is not on record here.

Among the test systems are COLO 205 colon; HOP-92 NSCLC; NCI-H522 lung; OVCAR-8 ovarian; RPMI-8226 leukemia; SK-MEL-5 melanoma; SNB-75 CNS; SR leukemia; IGROV1 ovarian; MCF7 breast.
Holding throughout (assay): NCI tumour cell line growth inhibition, 48 h

Turning to `c1ccc2[nH]c(-c3ccc(OCCCCCOc4ccc(-c5nc6ccccc6[nH]5)cc4)cc3)nc2c1`, the GI50 in the test with COLO 205 colon was 7.83 µM; with HOP-92 NSCLC, 3.84 µM; with NCI-H522 lung, 2.29 µM; with OVCAR-8 ovarian, 4.06 µM; in the test on RPMI-8226 leukemia, 2.21 µM; in the test with SK-MEL-5 melanoma, 1.15 µM. The GI50 in the test with SNB-75 CNS was 1.91 µM; with SR leukemia, 0.241 µM. Also, the TGI is greater than 34.5 µM in the test with COLO 205 colon; 10.1 µM in the test with HOP-92 NSCLC; 6.62 µM in the test on NCI-H522 lung; 11.6 µM in the test with OVCAR-8 ovarian; 6.51 µM with RPMI-8226 leukemia; 4.94 µM in the test on SK-MEL-5 melanoma. Besides, the values for the TGI in the test with SNB-75 CNS and with SR leukemia were 3.69 µM and 0.721 µM, respectively.

For `CN(C)CCNC(=O)c1cc([N+](=O)[O-])ccn1`, the TGI with COLO 205 colon is 26.3 µM; in the test with IGROV1 ovarian it was greater than 100 µM; in the test with MCF7 breast, 31.3 µM; in the test on NCI-H522 lung, 37.2 µM; with OVCAR-8 ovarian, 76.4 µM; in the test with RPMI-8226 leukemia, greater than 100 µM. Besides, the TGI in the test on SK-MEL-5 melanoma was 41.5 µM; in the test on SNB-75 CNS, greater than 100 µM; in the test with SR leukemia it was greater than 100 µM.

Take `NC(=NC1CCCCCC1)c1ccc(N2CCN(c3ccc(C(N)=NC4CCCCCC4)cc3)CC2)cc1`: the GI50 is 14.7 µM in the test on COLO 205 colon; 8.29 µM with HOP-92 NSCLC; 5.42 µM in the test with NCI-H522 lung; 9 µM in the test on OVCAR-8 ovarian; 1.33 µM with SK-MEL-5 melanoma; 6.64 µM in the test on SR leukemia. For the same compound, the TGI in the test with COLO 205 colon is greater than 50 µM; in the test with HOP-92 NSCLC, 28.7 µM; in the test on NCI-H522 lung, 23.9 µM; in the test on OVCAR-8 ovarian, greater than 50 µM; in the test with SK-MEL-5 melanoma, 6.76 µM; in the test on SR leukemia, 19.8 µM.

As to `CNS(=O)(=O)NN(C)S(=O)(=O)c1ccc(Br)cc1`, the TGI in the test with COLO 205 colon, with IGROV1 ovarian, in the test with NCI-H522 lung, in the test with OVCAR-8 ovarian, in the test on RPMI-8226 leukemia and with SK-MEL-5 melanoma was greater than 100 µM throughout. The TGI in the test with SNB-75 CNS and in the test with SR leukemia was greater than 100 µM in each case.

Take `NC1CCC[C@@H](O)[C@H]1O` (some centres undefined): the TGI with COLO 205 colon, in the test on IGROV1 ovarian, in the test with MCF7 breast, in the test with NCI-H522 lung, in the test on OVCAR-8 ovarian and with RPMI-8226 leukemia was greater than 100 µM each time. In addition, the TGI with SK-MEL-5 melanoma, in the test with SNB-75 CNS and in the test with SR leukemia was greater than 100 µM in each case.

As to `CC(=O)OC[C@@H]1[C@H]2CC(=O)O[C@H]2C[C@H]1OC(C)=O`, the TGI with COLO 205 colon, in the test with HOP-92 NSCLC, in the test on IGROV1 ovarian, with NCI-H522 lung, with OVCAR-8 ovarian and with RPMI-8226 leukemia was greater than 100 µM each time. The TGI in the test on SK-MEL-5 melanoma, in the test with SNB-75 CNS and in the test with SR leukemia was greater than 100 µM in each case.

As for `O=C1NC2(O)c3ccccc3C(=O)C2(O)N1c1ccccc1` (centres undefined), the TGI in the test on COLO 205 colon, in the test on HOP-92 NSCLC, with IGROV1 ovarian, in the test with NCI-H522 lung, in the test on OVCAR-8 ovarian and in the test with RPMI-8226 leukemia was greater than 100 µM each time. Moreover, the TGI in the test with SNB-75 CNS and with SR leukemia was greater than 100 µM in each case.

Take `Nc1ncc(-c2ccc(C(F)(F)F)cc2)c(NC2CCCCCC2)n1`: the GI50 was 19.5 µM with COLO 205 colon; 19.5 µM in the test on IGROV1 ovarian; 27.5 µM in the test on MCF7 breast; 27.7 µM with NCI-H522 lung; 32.5 µM in the test on OVCAR-8 ovarian; 8.91 µM in the test with RPMI-8226 leukemia. In addition, the GI50 in the test on SK-MEL-5 melanoma was 12.3 µM; in the test on SNB-75 CNS, 43.4 µM; in the test with SR leukemia, 13.2 µM. For the same compound, the TGI in the test with COLO 205 colon is 36.7 µM; in the test on IGROV1 ovarian, greater than 100 µM; with MCF7 breast it was greater than 100 µM; in the test on NCI-H522 lung, greater than 100 µM; with OVCAR-8 ovarian, greater than 100 µM; in the test with RPMI-8226 leukemia it was 41.1 µM. The results for the TGI with SK-MEL-5 melanoma, in the test on SNB-75 CNS and in the test on SR leukemia were 35 µM, greater than 100 µM and 57.2 µM, respectively.

Turning to `COC[C@H]1OC(=O)c2coc3c2[C@@]1(C)C1=C(C3=O)[C@@H]2CCC(=O)[C@@]2(C)C[C@H]1OC(C)=O`, the TGI with COLO 205 colon is greater than 31.6 µM; with IGROV1 ovarian it was 19.3 µM; in the test with MCF7 breast, greater than 100 µM; in the test on NCI-H522 lung, greater than 71.9 µM; with OVCAR-8 ovarian, greater than 100 µM; with RPMI-8226 leukemia, greater than 63.6 µM. Moreover, the TGI worked out at 61 µM in the test with SK-MEL-5 melanoma and 31.3 µM with SR leukemia.

As to `Cc1nn2c(/C=C3/C(=O)Nc4ccccc43)c(-c3ccc(Cl)cc3)nc2s1`, the GI50 is 14.9 µM in the test on COLO 205 colon; 39.1 µM in the test on IGROV1 ovarian; 17.1 µM in the test with MCF7 breast; 46 µM in the test on NCI-H522 lung; 31.9 µM in the test on OVCAR-8 ovarian; 4.37 µM in the test on RPMI-8226 leukemia. Besides, the values for the GI50 with SK-MEL-5 melanoma and in the test with SR leukemia were 26.3 µM and 13.8 µM, respectively. For the same compound, the TGI in the test with COLO 205 colon, with IGROV1 ovarian, in the test with MCF7 breast, in the test on NCI-H522 lung, in the test with OVCAR-8 ovarian and in the test with RPMI-8226 leukemia was greater than 50 µM in each case. Also, the TGI in the test with SK-MEL-5 melanoma and with SR leukemia was greater than 50 µM each time.

Regarding `O=c1[nH]nc2c3c(cccc13)NC(CN1Cc3ccccc3C1)=N2`, the GI50 in the test on COLO 205 colon was 4.09 µM; with IGROV1 ovarian, 3.87 µM; with MCF7 breast, 3.82 µM; in the test with NCI-H522 lung, 2.77 µM; in the test on OVCAR-8 ovarian, 15 µM; in the test with RPMI-8226 leukemia it was 8.17 µM. Besides, the GI50 with SK-MEL-5 melanoma was 8.42 µM; with SNB-75 CNS, 2.77 µM; with SR leukemia it was 5.13 µM. The TGI was 89.7 µM in the test with COLO 205 colon; greater than 100 µM in the test with IGROV1 ovarian; greater than 100 µM in the test with MCF7 breast; greater than 100 µM in the test on NCI-H522 lung; greater than 100 µM with OVCAR-8 ovarian; greater than 100 µM in the test with RPMI-8226 leukemia. In addition, the TGI in the test with SK-MEL-5 melanoma, in the test on SNB-75 CNS and with SR leukemia was greater than 100 µM each time.

In the case of `O=Cc1[nH]c2ccccc2c1Br`, the TGI in the test with COLO 205 colon was 34.7 µM; in the test with HOP-92 NSCLC, 66.8 µM; in the test with IGROV1 ovarian, 70.2 µM; with NCI-H522 lung, greater than 100 µM; in the test with OVCAR-8 ovarian it was 64.4 µM; in the test on SK-MEL-5 melanoma, 31.1 µM. For the same compound, the TGI in the test on SNB-75 CNS turned out to be 52.6 µM; in the test with SR leukemia, 61.1 µM.
